Assays:
[1] = target: T1, von Hippel-Lindau disease tumor suppressor/Son of sevenless homolog 1 (Homo sapiens, UniProt Q07889+P40337); test: Protac activity at VHL/SOS1 in human PANC-1 cells assessed as SOS1 degradation at 10 uM by Western blotting analysis relative to control; assay type: cell-based
Target sequence in this assay (P40337 whole entry, looked up): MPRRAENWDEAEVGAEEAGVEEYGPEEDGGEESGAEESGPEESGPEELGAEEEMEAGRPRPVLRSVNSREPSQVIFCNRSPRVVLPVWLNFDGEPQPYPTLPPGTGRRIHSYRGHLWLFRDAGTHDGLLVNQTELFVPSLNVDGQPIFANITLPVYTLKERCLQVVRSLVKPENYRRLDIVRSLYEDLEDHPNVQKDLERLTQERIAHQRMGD
Target sequence in this assay (Q07889 whole entry, looked up): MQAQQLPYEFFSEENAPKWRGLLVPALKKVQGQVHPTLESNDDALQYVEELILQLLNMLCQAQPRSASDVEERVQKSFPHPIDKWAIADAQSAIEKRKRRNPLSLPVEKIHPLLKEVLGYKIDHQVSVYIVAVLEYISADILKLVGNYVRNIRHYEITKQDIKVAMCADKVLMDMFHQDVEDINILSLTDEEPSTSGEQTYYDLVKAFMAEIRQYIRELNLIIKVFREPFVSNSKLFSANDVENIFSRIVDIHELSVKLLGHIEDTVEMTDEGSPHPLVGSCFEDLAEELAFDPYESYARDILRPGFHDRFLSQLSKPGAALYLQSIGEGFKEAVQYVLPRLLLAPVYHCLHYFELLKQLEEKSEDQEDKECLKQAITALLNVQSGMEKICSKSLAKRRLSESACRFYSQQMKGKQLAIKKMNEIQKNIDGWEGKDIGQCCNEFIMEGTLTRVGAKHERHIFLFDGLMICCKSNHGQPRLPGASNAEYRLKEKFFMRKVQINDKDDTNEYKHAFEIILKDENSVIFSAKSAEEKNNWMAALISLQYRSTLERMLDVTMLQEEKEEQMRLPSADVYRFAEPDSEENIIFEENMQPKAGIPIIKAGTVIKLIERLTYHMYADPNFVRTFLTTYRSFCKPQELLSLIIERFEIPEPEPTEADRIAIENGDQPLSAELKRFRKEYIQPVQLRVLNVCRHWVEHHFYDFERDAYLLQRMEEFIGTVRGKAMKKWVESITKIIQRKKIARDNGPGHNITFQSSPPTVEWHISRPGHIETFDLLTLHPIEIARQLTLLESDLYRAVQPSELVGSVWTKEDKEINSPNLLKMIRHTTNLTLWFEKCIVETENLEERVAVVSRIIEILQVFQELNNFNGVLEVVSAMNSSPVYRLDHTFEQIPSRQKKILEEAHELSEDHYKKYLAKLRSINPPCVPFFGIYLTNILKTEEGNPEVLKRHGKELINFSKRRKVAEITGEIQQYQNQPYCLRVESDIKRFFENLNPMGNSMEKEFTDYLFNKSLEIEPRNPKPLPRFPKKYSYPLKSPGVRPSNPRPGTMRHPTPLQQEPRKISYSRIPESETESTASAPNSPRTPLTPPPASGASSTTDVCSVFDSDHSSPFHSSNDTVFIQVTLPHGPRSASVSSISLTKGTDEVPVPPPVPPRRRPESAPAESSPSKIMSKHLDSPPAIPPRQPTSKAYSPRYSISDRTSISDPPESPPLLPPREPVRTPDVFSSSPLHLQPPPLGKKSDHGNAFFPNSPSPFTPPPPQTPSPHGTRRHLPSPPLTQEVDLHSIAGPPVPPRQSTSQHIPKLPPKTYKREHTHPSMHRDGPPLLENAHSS

[2] = target: T1, von Hippel-Lindau disease tumor suppressor/Son of sevenless homolog 1; test: Protac activity at VHL/SOS1 in human K562 cells assessed as SOS1 degradation at 1 uM by Western blotting analysis relative to control; assay type: cell-based
Target sequence in this assay (P40337 whole entry, looked up): as the sequence (P40337 whole entry, looked up) above
Target sequence in this assay (Q07889 whole entry, looked up): as the sequence (Q07889 whole entry, looked up) above

[3] = target: T1, von Hippel-Lindau disease tumor suppressor/Son of sevenless homolog 1; test: Protac activity at VHL/SOS1 in human PANC-1 cells assessed as SOS1 degradation at 1 uM by Western blotting analysis relative to control; assay type: cell-based
Target sequence in this assay (P40337 whole entry, looked up): as the sequence (P40337 whole entry, looked up) above
Target sequence in this assay (Q07889 whole entry, looked up): as the sequence (Q07889 whole entry, looked up) above

[4] = target: T1, von Hippel-Lindau disease tumor suppressor/Son of sevenless homolog 1; test: Protac activity at VHL/SOS1 in human K562 cells assessed as SOS1 degradation at 10 uM by Western blotting analysis relative to control; assay type: cell-based
Target sequence in this assay (P40337 whole entry, looked up): as the sequence (P40337 whole entry, looked up) above
Target sequence in this assay (Q07889 whole entry, looked up): as the sequence (Q07889 whole entry, looked up) above

[5] = target: T2, Protein cereblon/Son of sevenless homolog 1 (Homo sapiens) (UniProt Q07889+Q96SW2); test: Protac activity at CRBN/SOS1 in human PANC-1 cells assessed as SOS1 degradation at 1 uM by Western blotting analysis; assay type: cell-based
[6] = target: T2, Protein cereblon/Son of sevenless homolog 1 (Homo sapiens); test: Protac activity at CRBN/SOS1 in human K562 cells assessed as SOS1 degradation at 1 uM by Western blotting analysis relative to control; assay type: cell-based
[7] = target: T2, Protein cereblon/Son of sevenless homolog 1 (Homo sapiens); test: Protac activity at CRBN/SOS1 in human PANC-1 cells assessed as SOS1 degradation at 10 uM by Western blotting analysis relative to control; assay type: cell-based
[8] = target: T2, Protein cereblon/Son of sevenless homolog 1 (Homo sapiens); test: Protac activity at CRBN/SOS1 in human K562 cells assessed as SOS1 degradation at 10 uM by Western blotting analysis relative to control; assay type: cell-based
MIA PaCa-2 = test: Antiproliferative activity against human MIA PaCa-2 cells incubated for 72 hrs by CCK8 assay; assay type: functional, cell-based; conditions: MIA PaCa-2, 72 h
K562 = test: Antiproliferative activity against human K562 cells incubated for 72 hrs by CCK8 assay; assay type: functional, cell-based; conditions: K562, 72 h
[9] = target: T1, von Hippel-Lindau disease tumor suppressor/Son of sevenless homolog 1; test: Protac activity at VHL/SOS1 in human K562 cells assessed as SOS1 degradation incubated for 24 hrs by Western blotting analysis; assay type: cell-based
[10] = target: T1, von Hippel-Lindau disease tumor suppressor/Son of sevenless homolog 1; test: Protac activity at VHL/SOS1 in human MIA PaCa-2 cells assessed as SOS1 degradation incubated for 24 hrs by Western blotting analysis; assay type: cell-based
[11] = target: T1, von Hippel-Lindau disease tumor suppressor/Son of sevenless homolog 1; test: Protac activity at VHL/SOS1 in human NCI-H358 cells assessed as SOS1 degradation incubated for 24 hrs by Western blotting analysis; assay type: cell-based
[12] = target: T1, von Hippel-Lindau disease tumor suppressor/Son of sevenless homolog 1; test: Protac activity at VHL/SOS1 in human PANC-1 cells assessed as SOS1 degradation incubated for 24 hrs by Western blotting analysis; assay type: cell-based

T2 sequence (Q07889 whole entry, looked up): as above
T2 sequence (Q96SW2 whole entry, looked up): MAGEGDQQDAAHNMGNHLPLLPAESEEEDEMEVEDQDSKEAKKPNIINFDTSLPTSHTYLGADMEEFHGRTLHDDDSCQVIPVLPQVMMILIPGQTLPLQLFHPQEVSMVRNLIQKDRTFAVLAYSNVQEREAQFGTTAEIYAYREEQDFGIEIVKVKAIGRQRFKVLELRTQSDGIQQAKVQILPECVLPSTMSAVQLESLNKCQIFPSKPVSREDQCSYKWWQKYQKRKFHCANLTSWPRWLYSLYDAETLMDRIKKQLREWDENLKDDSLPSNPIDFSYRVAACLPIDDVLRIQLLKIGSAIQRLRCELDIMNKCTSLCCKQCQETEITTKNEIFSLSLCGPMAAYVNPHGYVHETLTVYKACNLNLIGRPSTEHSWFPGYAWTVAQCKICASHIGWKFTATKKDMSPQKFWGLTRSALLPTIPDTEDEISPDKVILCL

Row | Compound | Activity [1] [%] | Activity [2] [%] | Activity [3] [%] | Activity [4] [%] | further results
1 | CNCc1ccccc1-c1csc([C@@H](C)Nc2nc(C)nc3cc(OC)c(OCCCCCCCC(=O)N[C@H](C(=O)N4C[C@H](O)C[C@H]4C(=O)NCc4ccc(-c5scnc5C)cc4)C(C)(C)C)cc23)c1 | 14.3 | 27 | 0 | – | –
2 | COc1cc2nc(C)nc(N[C@H](C)c3cc(N)cc(C(F)(F)F)c3)c2cc1OCCCCCCCC(=O)N[C@H](C(=O)N1C[C@H](O)C[C@H]1C(=O)NCc1ccc(-c2scnc2C)cc1)C(C)(C)C | 0 | 0 | 28.8 | 0 | –
3 | COc1cc2nc(C)nc(N[C@H](C)c3cc(-c4ccccc4CNCCCCCCNc4ccc5c(c4)C(=O)N(C4CCC(=O)NC4=O)C5=O)cs3)c2cc1OC (stereo partly specified) | – | – | – | – | Activity [5]: 0%; Activity [6]: 0%; Activity [7]: 0%; Activity [8]: 37.7%
4 | CNCc1ccccc1-c1csc([C@@H](C)Nc2nc(C)nc3cc(OC)c(OCCCCCCCCC(=O)N[C@H](C(=O)N4C[C@H](O)C[C@H]4C(=O)NCc4ccc(-c5scnc5C)cc4)C(C)(C)C)cc23)c1 | 0 | 34.7 | 0 | – | –
5 | COc1cc2nc(C)nc(N[C@H](C)c3cc(N)cc(C(F)(F)F)c3)c2cc1OCCCCCCCCCC(=O)N[C@H](C(=O)N1C[C@H](O)C[C@H]1C(=O)NCc1ccc(-c2scnc2C)cc1)C(C)(C)C | 0 | 0 | 48.3 | 0 | –
6 | COc1cc2nc(C)nc(N[C@H](C)c3cc(-c4ccccc4CNCCCCCCCNc4ccc5c(c4)C(=O)N(C4CCC(=O)NC4=O)C5=O)cs3)c2cc1OC (stereo partly specified) | – | – | – | – | Activity [5]: 0%; Activity [6]: 35.4%; Activity [7]: 3.4%; Activity [8]: 72.1%
7 | COc1cc2nc(C)nc(C[C@H](C)c3cc(-c4ccccc4CNCCCCCCCCCNc4ccc5c(c4)C(=O)N(C4CCC(=O)NC4=O)C5=O)cs3)c2cc1OC (stereo partly specified) | – | – | – | – | Activity [5]: 10.3%; Activity [6]: 0%; Activity [7]: 0%; Activity [8]: 89.1%
8 | COc1cc2nc(C)nc(N[C@H](C)c3cc(N)cc(C(F)(F)F)c3)c2cc1OCCCC(=O)N[C@H](C(=O)N1C[C@H](O)C[C@H]1C(=O)NCc1ccc(-c2scnc2C)cc1)C(C)(C)C | 0 | 0 | 0 | 0 | –
9 | COc1cc2nc(C)nc(N[C@H](C)c3cc(N)cc(C(F)(F)F)c3)c2cc1OCCCCCCCCC(=O)N[C@H](C(=O)N1C[C@H](O)C[C@H]1C(=O)NCc1ccc(-c2scnc2C)cc1)C(C)(C)C | 21.5 | 0 | 28.2 | 0 | –
10 | COc1cc2nc(C)nc(N[C@H](C)c3cc(N)cc(C(F)(F)F)c3)c2cc1OCCCCCCC(=O)N[C@H](C(=O)N1C[C@H](O)C[C@H]1C(=O)NCc1ccc(-c2scnc2C)cc1)C(C)(C)C | 3.4 | 0 | 27 | 0 | –
11 | COc1cc2nc(C)nc(N[C@H](C)c3cc(N)cc(C(F)(F)F)c3)c2cc1O[C@H]1CCOC1 | – | – | – | – | IC50 (MIA PaCa-2): 29 nM; IC50 (K562): 1420 nM
12 | COc1cc2nc(C)nc(N[C@H](C)c3cc(-c4ccccc4CNCCCCCCCCNc4ccc5c(c4)C(=O)N(C4CCC(=O)NC4=O)C5=O)cs3)c2cc1OC (stereo partly specified) | – | – | – | – | Activity [5]: 1.3%; Activity [6]: 35.6%; Activity [7]: 0%; Activity [8]: 46.7%
13 | COc1cc2nc(C)nc(N[C@H](C)c3cc(N)cc(C(F)(F)F)c3)c2cc1OCCCCCC(=O)N[C@H](C(=O)N1C[C@H](O)C[C@H]1C(=O)NCc1ccc(-c2scnc2C)cc1)C(C)(C)C | 0 | 0 | 0 | 0 | –

The next lines start with results.

Row | Activity [1] [%] | Activity [2] [%] | Activity [3] [%] | Activity [4] [%] | Compound | further results
14 | 0 | 0 | 0 | 0 | COc1cc2nc(C)nc(N[C@H](C)c3cc(-c4ccccc4CNCCC4CCN(C(=O)CC(=O)N[C@H](C(=O)N5C[C@H](O)C[C@H]5C(=O)NCc5ccc(-c6scnc6C)cc5)C(C)(C)C)CC4)cs3)c2cc1OC | –
15 | 5.8 | 0 | 0 | 25.3 | COc1cc2nc(C)nc(N[C@H](C)c3cc(-c4ccccc4CNCCCCCCCCCC(=O)N[C@H](C(=O)N4C[C@H](O)C[C@H]4C(=O)NCc4ccc(-c5scnc5C)cc4)C(C)(C)C)cs3)c2cc1OC | –
16 | 11 | 0 | 13.2 | 0 | COc1cc2nc(C)nc(N[C@H](C)c3cc(-c4ccccc4CNCCCCCC(=O)N[C@H](C(=O)N4C[C@H](O)C[C@H]4C(=O)NCc4ccc(-c5scnc5C)cc4)C(C)(C)C)cs3)c2cc1OC | –
17 | 19.6 | 0 | 23 | 0 | COc1cc2nc(C)nc(N[C@H](C)c3cc(-c4ccccc4CNCC4CCN(CC5CCN(C(=O)CC(=O)N[C@H](C(=O)N6C[C@H](O)C[C@H]6C(=O)NCc6ccc(-c7scnc7C)cc6)C(C)(C)C)CC5)CC4)cs3)c2cc1OC | –
18 | 24.4 | 0 | 0 | 31.6 | COc1cc2nc(C)nc(N[C@H](C)c3cc(-c4ccccc4CNCCCCCCCCC(=O)N[C@H](C(=O)N4C[C@H](O)C[C@H]4C(=O)NCc4ccc(-c5scnc5C)cc4)C(C)(C)C)cs3)c2cc1OC | –
19 | 0 | 0 | 26 | 0 | COc1cc2nc(C)nc(N[C@H](C)c3cc(-c4ccccc4CNCC4CCN(C(=O)CC(=O)N[C@H](C(=O)N5C[C@H](O)C[C@H]5C(=O)NCc5ccc(-c6scnc6C)cc5)C(C)(C)C)CC4)cs3)c2cc1OC | –
20 | 0 | 18.9 | 5.6 | 6.7 | CNCc1ccccc1-c1csc([C@@H](C)Nc2nc(C)nc3cc(OC)c(C4=CCN(C(=O)CCC(=O)N[C@H](C(=O)N5C[C@H](O)C[C@H]5C(=O)NCc5ccc(-c6scnc6C)cc5)C(C)(C)C)CC4)cc23)c1 | –
21 | 0 | 28.1 | 0 | 21.8 | CNCc1ccccc1-c1csc([C@@H](C)Nc2nc(C)nc3cc(OC)c(OCCCCCCC(=O)N[C@H](C(=O)N4C[C@H](O)C[C@H]4C(=O)NCc4ccc(-c5scnc5C)cc4)C(C)(C)C)cc23)c1 | –
22 | 75.1 | 18.9 | 44 | 80.1 | COc1cc2nc(C)nc(N[C@H](C)c3cc(-c4ccccc4CNCCCCCCC(=O)N[C@H](C(=O)N4C[C@H](O)C[C@H]4C(=O)NCc4ccc(-c5scnc5C)cc4)C(C)(C)C)cs3)c2cc1OC | Activity [9]: Dose-Dependent Effect; DC50 [9]: 776 nM; Activity [10]: Dose-Dependent Effect; DC50 [10]: 870 nM; Activity [11]: Dose-Dependent Effect; DC50 [11]: 910 nM; Activity [12]: Dose-Dependent Effect; DC50 [12]: 701 nM
23 | 0 | 27.5 | 8.8 | 32.9 | CNCc1ccccc1-c1csc([C@@H](C)Nc2nc(C)nc3cc(OC)c(OCCCCC(=O)N[C@H](C(=O)N4C[C@H](O)C[C@H]4C(=O)NCc4ccc(-c5scnc5C)cc4)C(C)(C)C)cc23)c1 | –
24 | 49.8 | 0 | 29.1 | 0 | COc1cc2nc(C)nc(N[C@H](C)c3cc(-c4ccccc4CNCCCN4CCC(C(=O)N[C@H](C(=O)N5C[C@H](O)C[C@H]5C(=O)NCc5ccc(-c6scnc6C)cc5)C(C)(C)C)CC4)cs3)c2cc1OC | –
25 | 0 | 22.5 | 0 | 0 | CNCc1ccccc1-c1csc([C@@H](C)Nc2nc(C)nc3cc(OC)c(OCCCCCC(=O)N[C@H](C(=O)N4C[C@H](O)C[C@H]4C(=O)NCc4ccc(-c5scnc5C)cc4)C(C)(C)C)cc23)c1 | –
26 | 0 | 2.3 | 8.4 | 18.7 | CNCc1ccccc1-c1csc([C@@H](C)Nc2nc(C)nc3cc(OC)c(C4=CCN(C(=O)CCCC(=O)N[C@H](C(=O)N5C[C@H](O)C[C@H]5C(=O)NCc5ccc(-c6scnc6C)cc5)C(C)(C)C)CC4)cc23)c1 | –
27 | 12.7 | 27.4 | 0 | 58.9 | COc1cc2nc(C)nc(N[C@H](C)c3cc(-c4ccccc4CNCCCCCCCC(=O)N[C@H](C(=O)N4C[C@H](O)C[C@H]4C(=O)NCc4ccc(-c5scnc5C)cc4)C(C)(C)C)cs3)c2cc1OC | –
28 | 30.2 | 16.6 | 0 | 28.3 | CNCc1ccccc1-c1csc([C@@H](C)Nc2nc(C)nc3cc(OC)c(C4=CCN(C(=O)CCCCC(=O)N[C@H](C(=O)N5C[C@H](O)C[C@H]5C(=O)NCc5ccc(-c6scnc6C)cc5)C(C)(C)C)CC4)cc23)c1 | –
